Source: patent US20250281479A1, “TREATMENT OF CAVERNOUS ANGIOMAS WITH A 4-SUBSTITUTED PIPERIDINE DERIVATIVE” (Neurelis, Inc., priority 2024, published 2025)
pEC50, pIC50: −log10 of the molar value.

Key:
[1] = tested on: CYP3A4; assay: CYP induction in hepatocyte culture; type: in vitro ADME; settings: in at least one hepatocyte culture
Procedure: (§1) Exposure to NRL-2017 was similar or greater (up to 5-fold) than that to NRL-1049 in rats when dosed once a day (QD). In monkeys, exposure to NRL-2017 was also greater (up to 33-fold) than that to NRL-1049. When rats were dosed twice a day (BID) for 14 days, there was a decrease in formation of NRL-2017 with exposure to NRL-2017 lower than that of NRL-1049 (ratio as low as 0.06). […] NRL-1049 bound to human serum albumin and human alpha1-acid glycoprotein. […] There was also inhibition of P-glycoprotein (P-gp) (only CACO-2 cells), organic anion transporting polypeptides (OATP) OATP1B1, OATP1B3 and OAT3 (IC50, >100 μM), but no effect on P-gp (MDCK2 cells), breast cancer resistance protein (BCRP), bile salt export pump (BSEP), or MATE2-K. NRL-1049 is a substrate for P-gp, not BCRP. […] This conclusion will be revisited when human pharmacokinetic (PK) data becomes available.

[2] = tested on: CYP1A2; assay: CYP induction in hepatocyte culture; type: in vitro ADME; settings: in at least one hepatocyte culture
Procedure: as §1

[3] = first-in-human single ascending dose and food-effect study, safety and tolerability; type: in vivo
From the text: This was a first-in-human, single center, randomized, double-blind, placebo-controlled, single ascending dose (SAD) study, including a food-effect assessment, in healthy male and female subjects. Up to 44 subjects were included in the study.
The study consisted of 4 sequential cohorts of 8 subjects each (6 active and 2 placebo), randomly assigned to receive a single oral dose of NRL-1049 or matching-placebo under fasting state on Day 1 (See Table 2). In each cohort, a sentinel group of 2 subjects (1 active and 1 placebo) were dosed at least 24 hours prior to enrolling the remaining subjects of the cohort, contingent on the safety profile observed during sentinel dosing, as defined by medical judgment.
Subjects were admitted to the clinical research unit (CRU) on Day −1. On Day 1, following an overnight fast, subjects received a single oral dose of their assigned study treatment. Safety, PK, and exploratory biomarker assessments were performed prior to dosing and at assigned time points during study confinement. Subjects were permitted to leave the CRU following the completion of the 48-hour PK postdose sampling and safety assessments. A safety follow-up phone call was performed on Day 8 (±1 day).
Each dose cohort was separated by at least 7 days to review safety by the Data Safety Monitoring Board (DSMB) prior to a decision to proceed with the next higher dose cohort or stop the study.
Furthermore, a food-effect assessment was integrated into Cohort 3, in which a single oral 150 mg dose of NRL-1049 or placebo was administered to 12 subjects (10 active and 2 placebo) under fed state in Period 2 (refer to schedule of food-effect Cohort 3 in Table 3). After completion of Period 1 and a washout period of at least 14 days, Cohort 3 subjects repeated the screening procedures to ensure they still met the inclusion and exclusion criteria prior to readmission to the CRU for Period 2. Subjects dosed in Period 1 and who returned for Period 2 (a maximum of 6 active and 2 placebo) were administered the same single oral dose in Period 2 under fed state. In addition, at least 4 new subjects were enrolled in Period 2 only, in order to dose a total of 12 subjects (10 active and 2 placebo), in a 1:1 ratio of male to female. If a subject dosed in Period 1 was unable to return for Period 2, a new subject was enrolled to ensure dosing a total of 12 subjects in Period 2. Newly enrolled subjects only received the study drug in the fed state, and as such were not required to undergo Period 1 activities. There was no sentinel approach in Period 2.
The safety, PK, and exploratory biomarker assessments were performed prior to dosing and at assigned time points during study confinement. For the food-effect cohort, exploratory biomarker samples were collected in both periods. Subjects were discharged from the CRU following the completion of the 48-hour PK postdose sampling and safety assessments. A safety follow-up phone call was performed on Day 23 (±1 day).

[4] = biological target: CYP2D6 (Homo sapiens, UniProt P10635); assay: CYP inhibition; type: in vitro ADME; settings: read-out: half-maximal inhibitory concentration (IC50)
CYP2D6, sequence (P10635 whole entry): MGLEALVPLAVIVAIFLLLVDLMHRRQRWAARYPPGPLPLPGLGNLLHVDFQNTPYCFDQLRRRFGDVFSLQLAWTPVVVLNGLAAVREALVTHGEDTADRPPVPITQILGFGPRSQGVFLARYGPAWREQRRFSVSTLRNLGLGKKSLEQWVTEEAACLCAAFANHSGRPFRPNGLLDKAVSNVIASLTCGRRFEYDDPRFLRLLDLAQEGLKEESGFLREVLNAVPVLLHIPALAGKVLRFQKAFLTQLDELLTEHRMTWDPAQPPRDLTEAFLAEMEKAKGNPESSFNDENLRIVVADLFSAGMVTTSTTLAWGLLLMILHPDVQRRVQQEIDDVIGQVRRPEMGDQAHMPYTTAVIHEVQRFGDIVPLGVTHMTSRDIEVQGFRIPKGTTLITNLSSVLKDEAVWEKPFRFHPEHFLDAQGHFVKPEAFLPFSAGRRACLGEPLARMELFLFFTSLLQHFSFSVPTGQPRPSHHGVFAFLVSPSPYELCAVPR
Procedure: as §1

[5] = tested on: mouse, monkey, and human hepatocytes; assay: incubation with hepatocytes (mouse, monkey, human); type: in vitro ADME
Procedure: as §1

[6] = biological target: OCT1 (Homo sapiens, UniProt O15245); assay: transporter inhibition; type: in vitro ADME; settings: one range printed for OAT1, OCT1, OCT2 and MATE1 together
OCT1, sequence (O15245 whole entry): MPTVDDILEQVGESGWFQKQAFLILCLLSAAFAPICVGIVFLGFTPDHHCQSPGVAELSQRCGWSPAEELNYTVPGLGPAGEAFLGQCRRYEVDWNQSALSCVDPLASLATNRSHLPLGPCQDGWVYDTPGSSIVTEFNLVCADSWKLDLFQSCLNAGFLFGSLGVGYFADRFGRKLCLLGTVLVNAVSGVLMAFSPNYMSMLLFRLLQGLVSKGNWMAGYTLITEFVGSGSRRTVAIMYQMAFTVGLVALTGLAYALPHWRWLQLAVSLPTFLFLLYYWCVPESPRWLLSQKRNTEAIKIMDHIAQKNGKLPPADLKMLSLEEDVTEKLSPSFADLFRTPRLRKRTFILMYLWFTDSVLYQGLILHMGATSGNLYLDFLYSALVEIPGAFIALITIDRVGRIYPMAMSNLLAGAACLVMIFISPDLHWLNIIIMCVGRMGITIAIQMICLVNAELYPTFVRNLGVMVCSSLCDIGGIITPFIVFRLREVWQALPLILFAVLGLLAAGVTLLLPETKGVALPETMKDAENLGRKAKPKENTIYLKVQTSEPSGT
Procedure: as §1

[7] = biological target: OCT2 (Homo sapiens, UniProt O15244); assay: transporter inhibition; type: in vitro ADME; settings: one range printed for OAT1, OCT1, OCT2 and MATE1 together
OCT2, sequence (O15244 whole entry): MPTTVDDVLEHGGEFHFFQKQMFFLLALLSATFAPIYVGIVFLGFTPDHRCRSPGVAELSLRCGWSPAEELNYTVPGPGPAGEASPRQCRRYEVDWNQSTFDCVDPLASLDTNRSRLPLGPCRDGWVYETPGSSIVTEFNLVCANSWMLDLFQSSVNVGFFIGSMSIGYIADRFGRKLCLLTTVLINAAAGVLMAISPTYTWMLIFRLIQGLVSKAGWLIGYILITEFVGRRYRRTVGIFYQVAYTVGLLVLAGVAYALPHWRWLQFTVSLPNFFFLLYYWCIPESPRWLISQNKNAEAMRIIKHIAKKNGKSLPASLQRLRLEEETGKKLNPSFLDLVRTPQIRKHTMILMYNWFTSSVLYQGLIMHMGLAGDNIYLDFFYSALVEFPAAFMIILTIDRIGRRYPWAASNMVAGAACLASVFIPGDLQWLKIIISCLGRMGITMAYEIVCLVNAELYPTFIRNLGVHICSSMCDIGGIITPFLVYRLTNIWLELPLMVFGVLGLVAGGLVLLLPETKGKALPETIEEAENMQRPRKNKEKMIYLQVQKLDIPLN
Procedure: as §1

[8] = biological target: OATP1B3 (Homo sapiens, UniProt Q9NPD5); assay: transporter inhibition; type: in vitro ADME
OATP1B3, sequence (Q9NPD5 whole entry): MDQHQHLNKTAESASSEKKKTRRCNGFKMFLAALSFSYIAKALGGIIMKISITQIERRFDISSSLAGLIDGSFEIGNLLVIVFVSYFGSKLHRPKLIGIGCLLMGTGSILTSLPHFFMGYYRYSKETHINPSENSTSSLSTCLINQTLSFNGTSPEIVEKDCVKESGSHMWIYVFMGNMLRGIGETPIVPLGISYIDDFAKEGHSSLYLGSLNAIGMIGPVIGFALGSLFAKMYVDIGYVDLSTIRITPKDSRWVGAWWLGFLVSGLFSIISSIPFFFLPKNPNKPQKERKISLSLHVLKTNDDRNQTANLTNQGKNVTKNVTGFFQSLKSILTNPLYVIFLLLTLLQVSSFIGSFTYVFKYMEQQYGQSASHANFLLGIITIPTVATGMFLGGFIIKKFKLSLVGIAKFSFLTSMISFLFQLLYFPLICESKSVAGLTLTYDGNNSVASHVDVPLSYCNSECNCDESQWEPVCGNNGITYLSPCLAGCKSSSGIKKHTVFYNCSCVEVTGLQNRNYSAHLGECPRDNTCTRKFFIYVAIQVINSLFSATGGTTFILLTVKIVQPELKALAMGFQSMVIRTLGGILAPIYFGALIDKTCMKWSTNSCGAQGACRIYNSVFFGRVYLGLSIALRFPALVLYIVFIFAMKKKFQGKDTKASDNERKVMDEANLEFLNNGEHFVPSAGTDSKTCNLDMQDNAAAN
Procedure: as §1

[9] = biological target: OAT1 (Homo sapiens, UniProt Q4U2R8); assay: transporter inhibition; type: in vitro ADME; settings: one range printed for OAT1, OCT1, OCT2 and MATE1 together
OAT1, sequence (Q4U2R8 whole entry): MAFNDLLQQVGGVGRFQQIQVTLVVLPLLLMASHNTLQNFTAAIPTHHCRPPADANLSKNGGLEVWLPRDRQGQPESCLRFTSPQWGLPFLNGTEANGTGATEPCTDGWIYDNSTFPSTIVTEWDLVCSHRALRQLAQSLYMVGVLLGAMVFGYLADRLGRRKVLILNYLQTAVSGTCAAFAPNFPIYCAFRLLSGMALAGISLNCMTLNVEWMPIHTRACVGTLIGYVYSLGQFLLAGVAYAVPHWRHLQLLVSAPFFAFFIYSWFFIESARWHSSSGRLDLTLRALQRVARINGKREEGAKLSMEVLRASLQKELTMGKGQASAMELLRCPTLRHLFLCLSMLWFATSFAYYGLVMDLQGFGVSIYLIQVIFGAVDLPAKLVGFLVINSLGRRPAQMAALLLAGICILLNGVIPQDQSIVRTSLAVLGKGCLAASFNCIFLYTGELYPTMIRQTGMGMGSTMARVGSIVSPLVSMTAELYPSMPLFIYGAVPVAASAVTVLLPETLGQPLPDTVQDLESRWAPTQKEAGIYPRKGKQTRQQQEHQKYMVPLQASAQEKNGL
Procedure: as §1

[10] = biological target: OAT3 (Homo sapiens, UniProt Q8TCC7); assay: transporter inhibition; type: in vitro ADME
OAT3, sequence (Q8TCC7 whole entry): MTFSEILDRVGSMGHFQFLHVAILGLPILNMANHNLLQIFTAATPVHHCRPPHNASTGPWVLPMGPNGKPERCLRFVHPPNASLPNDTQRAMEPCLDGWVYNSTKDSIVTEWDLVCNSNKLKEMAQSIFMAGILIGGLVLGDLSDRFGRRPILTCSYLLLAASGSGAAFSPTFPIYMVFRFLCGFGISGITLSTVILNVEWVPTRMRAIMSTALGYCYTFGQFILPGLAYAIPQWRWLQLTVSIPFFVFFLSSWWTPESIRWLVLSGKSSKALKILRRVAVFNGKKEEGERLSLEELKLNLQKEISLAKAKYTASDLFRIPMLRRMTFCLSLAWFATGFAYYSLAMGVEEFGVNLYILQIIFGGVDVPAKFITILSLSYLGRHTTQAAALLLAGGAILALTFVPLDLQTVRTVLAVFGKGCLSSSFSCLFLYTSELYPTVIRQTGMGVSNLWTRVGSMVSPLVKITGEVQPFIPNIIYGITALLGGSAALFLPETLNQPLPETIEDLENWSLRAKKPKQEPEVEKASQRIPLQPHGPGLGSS
Procedure: as §1

[11] = biological target: bile salt export pump (BSEP) (Homo sapiens, UniProt O95342); assay: transporter inhibition; type: in vitro ADME
Procedure: as §1

[12] = biological target: MATE1 (Homo sapiens, UniProt Q96FL8); assay: transporter inhibition; type: in vitro ADME; settings: one range printed for OAT1, OCT1, OCT2 and MATE1 together
MATE1, sequence (Q96FL8 whole entry): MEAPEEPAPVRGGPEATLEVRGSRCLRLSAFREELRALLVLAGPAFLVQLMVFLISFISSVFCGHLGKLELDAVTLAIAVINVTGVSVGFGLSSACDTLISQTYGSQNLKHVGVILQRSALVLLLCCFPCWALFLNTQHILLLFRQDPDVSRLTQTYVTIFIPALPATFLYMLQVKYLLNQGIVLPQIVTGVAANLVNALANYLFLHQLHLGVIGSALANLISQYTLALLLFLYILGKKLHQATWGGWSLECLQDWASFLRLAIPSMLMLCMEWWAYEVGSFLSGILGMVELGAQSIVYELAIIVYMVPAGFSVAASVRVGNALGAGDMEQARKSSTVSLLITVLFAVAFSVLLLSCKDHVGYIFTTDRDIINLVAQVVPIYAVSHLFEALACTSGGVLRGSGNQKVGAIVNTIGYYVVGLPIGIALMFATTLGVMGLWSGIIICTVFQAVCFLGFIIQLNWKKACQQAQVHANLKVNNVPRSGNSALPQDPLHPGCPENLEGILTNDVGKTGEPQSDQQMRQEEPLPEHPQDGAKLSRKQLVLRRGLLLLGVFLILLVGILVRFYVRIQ
Procedure: as §1

[13] = biological target: OATP1B1 (Homo sapiens, UniProt Q9Y6L6); assay: transporter inhibition; type: in vitro ADME
OATP1B1, sequence (Q9Y6L6 whole entry): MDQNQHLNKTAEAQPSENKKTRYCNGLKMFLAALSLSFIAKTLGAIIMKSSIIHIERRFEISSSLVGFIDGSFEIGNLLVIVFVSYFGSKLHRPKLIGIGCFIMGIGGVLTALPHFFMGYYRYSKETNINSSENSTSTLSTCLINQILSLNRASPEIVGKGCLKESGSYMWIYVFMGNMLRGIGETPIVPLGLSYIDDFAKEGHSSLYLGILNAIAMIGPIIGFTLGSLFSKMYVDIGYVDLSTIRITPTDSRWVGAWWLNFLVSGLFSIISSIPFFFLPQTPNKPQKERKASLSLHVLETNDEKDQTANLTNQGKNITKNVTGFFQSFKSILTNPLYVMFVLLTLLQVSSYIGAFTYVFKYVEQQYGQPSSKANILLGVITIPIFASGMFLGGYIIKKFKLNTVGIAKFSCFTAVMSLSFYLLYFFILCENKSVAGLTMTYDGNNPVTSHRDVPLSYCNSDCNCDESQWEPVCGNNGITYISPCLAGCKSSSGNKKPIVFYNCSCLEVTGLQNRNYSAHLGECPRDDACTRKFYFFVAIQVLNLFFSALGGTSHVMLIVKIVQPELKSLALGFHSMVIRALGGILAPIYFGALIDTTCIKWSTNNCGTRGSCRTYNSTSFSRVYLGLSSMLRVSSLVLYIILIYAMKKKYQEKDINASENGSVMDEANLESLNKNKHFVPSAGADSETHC
Procedure: as §1

[14] = tested on: plasma protein; assay: plasma protein binding; type: in vitro ADME, mouse; settings: mouse, rat, dog, monkey, minipig and human plasma
Procedure: as §1

[15] = plasma protein binding; type: in vitro ADME, mouse; settings: range over mouse, rat, dog, monkey, minipig and human plasma; read-out: % free drug
Procedure: as §1

[16] = nonclinical pharmacokinetics after a single oral dose; type: in vivo, mice, rats, and monkeys
Procedure: as §1

## C[C@@H](N)C1CCN(S(=O)(=O)c2cccc3cnccc23)CC1 [NRL-1049]
[1]
  induction of CYP3A4, maximal effective concentration [Emax]: 2.19 fold
[1]; read-out: induction of CYP3A4, half-maximal effective concentration [EC50]
  pEC50: 4.38
[2]
  induction of CYP1A2: 3 fold
[3]; Part 1 (SAD)
  deaths or SAEs: No deaths or SAEs
[3]; Part 2
  deaths or SAEs: No deaths or SAEs
[3]; both, human, in vivo
  TEAEs of Grade 1/mild: 57.1%
  TEAEs of Grade 1 or Grade 2: 92.3%
  TEAEs of Grade 2/moderate: 42.9%
[3]; both, human, in vivo, 8 days
  TEAEs deemed related to study treatment: 76.9%
  TEAEs of Grade 1: 30.8%
  TEAEs of Grade 2: 61.5%
  subjects who experienced TEAEs: 28.1%
[3]; in vivo
  CS abnormal findings in laboratory parameters, vital signs, ECGs, physical examination, or cardiac telemetry: No CS abnormal findings
  blood pressure: reduction of blood pressure
[3]; in vivo, po
  tolerability: generally well tolerated
[3]; overall
  deaths, SAEs, Grade 4/5 TEAEs: no deaths, SAEs, or Grade 4/5 TEAEs
[3]; single oral dose, levels between 150 and 250 mg not explored
  MTD: 150 mg
[4]
  pIC50: 6.74
[5]
  clearance in hepatocytes: moderate to high clearance
[6]
  pIC50: 4.18 to 5.07
[7]
  pIC50: 4.18 to 5.07
[8]
  pIC50: < 4.00
[9]
  pIC50: 4.18 to 5.07
[10]
  pIC50: < 4.00
[11]
  effect on transporter: no effect
[12]
  pIC50: 4.18 to 5.07
[13]
  pIC50: < 4.00
[14]
  plasma protein binding: low to moderate
[15]
  fraction unbound: 0.541 to 0.706
[16]; in vivo
  exposure versus dose: greater than dose-proportional
[16]; mouse, rat, monkey, plasma, single oral dose of NRL-1049, range over mice, rats, and monkeys, read-out: elimination phase half-life (t½)
  half-life: 0.57 to 6.8 h
[16]; mouse, rat, monkey, plasma, single oral dose of NRL-1049, range over mice, rats, and monkeys, read-out: time to maximum plasma concentration (Tmax)
  Tmax: 0.25 to 2 h
